Test results from patent publication US20120142730A1 (priority 2010, published 2012).

Test system: subjects with relapsing remitting multiple sclerosis (RRMS)
Assay: ALLEGRO phase III trial: patient-reported fatigue (MFIS), SF-36 and EQ5D
Format: in vivo, human
Method: Eligible subjects were equally randomized 1:1 into one of the following treatment arms: • 1. […] 21, 2007 (see, page 10, line 5 to page 11, line 3). • 2. Matching placebo for laquinimod arm: one capsule is administered once daily. The following assessments were performed at specified time points: • 1. Vital signs were measured at each study visit. • 2. A physical examination is performed at months −1 (screening), (baseline) 1, 3, 6, 12, 18 and 24 (termination/early discontinuation core study). In case of the 6 months extended study, additional examination was performed at month 30 (termination/early discontinuation of extended study). • 3. The following safety clinical laboratory tests were performed: • a. Complete blood count (CBC) with differential—at all scheduled visits. A reticulocyte count was added to the CBC at months 0 (baseline) and 24/30 (termination/early discontinuation). • b. Serum chemistry (including electrolytes, liver enzymes, direct and total bilirubin and pancreatic amylase and CPK), and urinalysis—at all scheduled visits. • c. A rapid urine β-hCG test was performed in women of child-bearing potential at baseline (month 0) and at each scheduled study visit thereafter (at site). • d. β-hCG in women of child-bearing potential was performed at all scheduled visits. • e. Starting after visit Month 3 a rapid urine β-hCG test was performed in women of child-bearing potential every 28 (±2) days. The subject was contacted by telephone within 72 hours after the test was scheduled to be performed and asked specific questions regarding the test. In case of suspected pregnancy (positive urine β-hCG test result), the caller made sure that the study drug has been discontinued and the subject was instructed to arrive at the site as soon as possible with all study drugs. • 4. Markers of inflammation (serum conventional C-reactive protein and fibrinogen)—at screening, baseline and all scheduled visits thereafter. • 5. During the first 3 months periodical phone calls were placed by the site personnel every two weeks. […] ECG was performed at months −1 (screening; additional recording, up to 30 minutes apart is performed if QTc is […] 450 msec), (baseline; three recordings, 15 minutes apart), 1, 2, 3, 6, 12, 18 and 24 (termination/early discontinuation). In case of the 6 months extended study, ECG is performed at month 30 (termination/early discontinuation of the extended study). • 7. Chest X-ray is performed at months −1 (screening), (if not performed within 7 months prior to the screening visit). • 8. Adverse Events (AEs) are monitored throughout the study. • 9. Concomitant medications are monitored throughout the study. • 10. Neurological evaluations, including Expanded Disability Status Scale (EDSS), 25 foot walk test/Ambulation Index (AI), Functional systems (FS) are performed at months −1 (screening), (baseline) and every 3 months during the study and the extended study period. • 11. MS functional Composite (MSFC) was assessed at months −1 (screening) (three practices for training purposes only), at month 0 (baseline), 6, 12, 18 and 24 (termination/early discontinuation). In case of the 6 months extended study, the last MSFC was performed at months 30 (termination/early discontinuation of the extended study). • 12. Subject-reported fatigue was assessed by the Modified Fatigue Impact Scale (MFIS) at months 0, 6, 12, 18, and 24 (termination/early discontinuation). In case of the 6 months extended study, additional MFIS was performed at month 30 (termination/early discontinuation of the extended study). • 13. The general health status was assessed by the EuroQoL (EQ5D) questionnaire at month 0 (baseline) and month 24 (termination/early discontinuation of the study). In case of the 6 months extended study, the last EuroQoL (EQ5D) was performed at month 30 (termination/early discontinuation of the extended study) instead of month 24. • 14. […]

[1] = 0.6 mg daily oral, listed as laquinimod

For `CCN(C(=O)c1c(O)c2c(Cl)cccc2n(C)c1=O)c1ccccc1` [Laquinimod, laquinimod], the “EQ-5D dimensions, health status at Month 24, words” value (0.6 mg daily oral) was 0.6 mg maintained their health status at Month 24 while those treated with placebo reported a, the “MFIS (Modified Fatigue Impact Scale) adjusted mean score at 24 months” value (0.6 mg daily oral) was 31.9 and the “SF36 Mental component summary, treatment effect” value (0.6 mg daily oral vs placebo) was 1.848. For the same compound, the MFIS treatment effect (0.6 mg daily oral vs placebo, month 24, p=0.004) was −2.53, the “EQ5D, effect” value (0.6 mg daily oral vs placebo, p 0.0267) was −2.366 and the “SF36 Physical component summary, effect” value (0.6 mg daily oral vs placebo, p 0.1354) was 0.65. For the same compound, the “SF36 Mental component summary, treatment effect” value (0.6 mg daily oral vs placebo, listed as laquinimod) was 1.68, the “EQ5D General Health Status by the Euroqol Questionnaire” value (0.6 mg daily oral, month 24) was 71.0 and the “SF36 - SFMHD Mental component summary” value (0.6 mg daily oral, month 24) was −0.47. For the same compound, the “SF36 - SFPHD Physical component summary” value (0.6 mg daily oral, month 24) was −0.519, the “MFIS (Modified Fatigue Impact Scale) adjusted mean score at 24 months” value [1] was 31.9 (0.71) and the “SF-36 PCS score over 24 months, words” value [1] was “The PCS score at Month 24 for those treated with laquinimod 0.6 mg remained stable while the”. The “Functional disability due to fatigue (MFIS), words” value (0.6 mg vs placebo at Month 24) was “average, associated with less functional disability due to fatigue than placebo at Month 24”, the “Change in adjusted mean MFIS psychosocial subscale score from baseline” value (at 12 months, p=0.02) was “significant improvement” and the “Change in adjusted mean MFIS physical subscale score from baseline” value (at 24 months, p=0.02) was “significant improvement”. For the same compound, the “Change in adjusted mean MFIS cognitive subscale score from baseline” value (at 24 months, p=0.05) was “significant improvement”, the “SF-36 PCS subscale role physical” value (over 24 months vs placebo, p=0.010) was “showed improvement” and the “SF-36 PCS subscale physical functioning” value (over 24 months vs placebo, p=0.016) was “showed improvement”. The “SF-36 PCS difference from placebo, words” value (over 24 months, p=0.13) was “did not reach statistical significance”, the “EQ-5D Anxiety or Depression, effect” value (vs placebo, Month 24, p 0.0113) was 1.425 and the “EQ-5D Mobility, effect” value (vs placebo, Month 24, p 0.0181) was 1.497. For the same compound, the “EQ-5D Self care, effect” value (vs placebo, Month 24, p 0.0337) was 2.251, the “EQ-5D Usual activities, effect” value (vs placebo, Month 24, p 0.4051) was 1.129 and the “EQ-5D Pain discomfort, effect” value (vs placebo, Month 24, p 0.8024) was 1.036.
